Measurements from patent US12486255B2, “Modulators of RAS GTPase” (Tosk, Inc., priority 2018, dated 2025).
“Also recorded” adds a separate entry of the source.

How the values were obtained:
H322 = test: Cytotoxicity assay, H322 cells; assay type: cell-based; settings: H322, human lung cancer cell line expressing wild type kRAS
Procedure: (§1) Compounds were assayed for inhibition of cell proliferation and killing cancer cells. Cytotoxicity assays were conducted according to the following general procedure. SW480, SW48, SW900, SW620 were all maintained in Leibowitz L15 media supplemented with 10% fetal bovine serum and 1% PenStrep and grown in a 37° C. incubator without supplemental CO2. Capan-1 cells were maintained in Iscove's Modified Dulbecco's Medium (ATCC 30-2005) containing 20% fetal bovine serum and 1% PenStrep and grown in a 37° C. incubator containing 5% CO2.

[1] = Multi-day safety study in mice; assay type: in vivo; settings: female CD1 mice, 2 mg/kg ip daily for 6 days
Procedure: The multi-day safety study used female, 10 week old, CD1 mice (4/treatment group) dosed with DMSO. Mice were administered 2 mg/kg of Structure 2 or 10 mg/kg Structure 3, ip, daily for 6 days and evaluated for changes clinical chemistry values, hematology values and animal weight as well as signs of health and grooming habits.
Heparinized blood samples were obtained by retro-orbital puncture on Day 6, 12 hours after the last dose of Structure 2. The plasma harvested from the blood was analyzed for standard clinical chemistry parameters (ALB. ALP, ALT, AMY, TBIL, BUN, CA, PHOS, CRE GLU, NA, K, TP & GLOB) and hematology (WBC, LYM, MON, GRA, RBC, HGB, HCT, MCV, MCH, MCHC, RDWc, PLT, PCT, MPV, PDWc) analytes (see definitions herein). Animal weight changes were also monitored. Values for all analytes were analyzed by one way ANOVA plus post-hoc Bonferroni using SPSS (IBM, Armonk, NY).

[2] = tested on: phosphorylated ERK 1/2 (T202/Y204); test: Phosphorylated ERK bioassay (Western blot, SW480 cells); assay type: cell-based, human; settings: 3 μM, 24 hours, in the presence of serum
Procedure: As described herein, the main downstream target for kRAS is ERK (Samatar et al., Targeting RAS-ERK signaling in cancer: promises and challenges. Nat Rev Drug Discov. 2014; 13:928-42). kRAS activates ERK leading to phosphorylated ERK. A compound that suppresses kRAS activity is expected to lower phosphorylated ERK.
Test articles abrogate the expression of phosphorylated ERK (T202/Y204) SW480 cells were subjected to test article incubation at 3 μM for 24 hours in the presence of serum to mimic natural growth environment. Cells were extracted and total protein of samples normalized through BCA assay. Processed extracts were subjected to SDS-PAGE/Western blot and blotted for phosphorylated ERK 1/2 (T202/Y204); ERK 1/2; and α-Tubulin.
The compound U0126 in FIG. 8 is a MEK inhibitor which is known to suppress phosphorylation of ERK. The compound was tested along with the test articles to serve as a positive control.

[3] = tested on: SW480 cells implanted into nu/nu mice; test: Xenograft study; assay type: in vivo, nude mice (nu/nu); settings: SW480 subcutaneous tumors in nu/nu mice, 2 mg/kg ip, 24 days post treatment, p<0.028 Student's t-test
Procedure: FIG. 10 Effect of Structure 2 on growth of SW480 cells implanted into nu/nu mice. Boxplots showing tumor volumes in nude mice 24 days post treatment ip with either 2 mg/kg Structure 2 or vehicle control (DMSO). Subcutaneous tumors were induced by subcutaneous inoculation in the right flank of 3×10^6 human colon cancer cell line SW480 in Matrigel. Treatment with Structure 2 was initiated 6 days post tumor implantation. Structure 2 was administrated ip at 2 mg/kg, while control was given vehicle DMSO. All animals were sacrificed at day 30. […] In the Figure, (*) designates p<0.028 compared to vehicle control by Student's t-test.
Female nude mice (nu/nu) were purchased from Simonsen Laboratories (Gilroy, CA). All experiments were performed with 4 to 6-week-old female mice. Mice were housed in a barrier unit in the Tosk Animal facility, kept in filter-top cages with water and food provided ad libitum, and were checked at least twice a week for clinical signs of disease and discomfort. Subcutaneous tumors are induced by subcutaneous inoculation in the right flank of 3×10^6 human colon cancer cell line SW480 in Matrigel. The tumors are allowed to grow and volumes (mm^3) are calculated weekly from digital caliper measurements as 0.5×length×width^2. Treatment was initiated 6 days post tumor implantation. Structure 2 was administrated ip at 2 mg/kg, while control was given vehicle DMSO. […]

Capan-1 cells = test: Cytotoxicity assay, CellTiter-Glo 2.0, Capan-1 cells; assay type: cell-based; settings: Capan 1, human pancreatic cancer cell line expressing kRAS G12V; 48 hours
Procedure: FIG. 5, panels A-B, illustrates the cytotoxicity of Structure 2 and Structure 3 on Capan-1 cells. The cytotoxicity of compounds of interest were tested against the human pancreatic cancer cell line Capan-1 as described in the experimental section. Capan-1 cells express a mutant G12V kRAS. Compounds were incubated with cells for 48 hours and the assay was developed using Cell Titer Glo 2.0. IC50 vales were determined using GraphPad Prism 4.
as §1
For dose-response assays, SW480 cells were plated into 96 well plates (1 million/plate, ˜10,000/well, 250 μL media/well). Cells were allowed to settle and adhere to plate bottom overnight Compounds were placed in 500 μL media and mixed. Then 250 μL compounds+media was placed in an intermediate plate in row A. Rows B through H were filled with 125 μL media. […] Luminescence was read with FLx800 (BioTek Instruments).

## Cc1nc(-c2ccc(CNC(=O)c3cc(CC(C)C)nn3C)cc2)no1 [Structure 2, 3-isobutyl-1-methyl-N-(4-(5-methyl-1,2,4-oxadiazol-3-yl)benzyl)-1H-pyrazole-5-carboxamide]
H322
  not cytotoxic at concentrations up to: > 200 µM
[1]
  body weight or grooming habits versus dosing vehicle treated animals: no statistically significant difference
  clinical chemistry changes versus dosing vehicle treated animals: no significant clinical chemistry changes
[1]; Day 6
  ALB: 3.88 ± 0.30 g/dL
  ALP: 66.50 ± 8.80 U/L
  ALT: 59.00 ± 32.50 U/L
  AMY: 871.50 ± 74.70 U/L
  BUN: 18.25 ± 4.10 mg/dL
  CRE: 0.34 ± 0.10 mg/dL
  Ca^++: 9.43 ± 0.40 mg/dL
  GLOB: 1.23 ± 0.10 g/dL
  GLU: 234.25 ± 31.70 mg/dL
  GRA: 1.23 ± 0.20 10^9/l
  GRA (%): 19.03 ± 3.70%
  HCT: 44.34 ± 4.60%
  HGB: 15.23 ± 1.70 g/dL
  K^+: 5.35 ± 0.40 mmol/L
  LYM: 5.17 ± 1.80 10^9/l
  LYM (%): 76.18 ± 3.50%
  MCH: 16.15 ± 0.40 pg
  MCHC: 34.35 ± 1.30 g/dL
  MCV: 47.00 ± 2.40 fL
  MON: 0.33 ± 0.10 10^9/l
  MON (%): 4.85 ± 0.40%
  MPV: 7.10 ± 0.60 fL
  NA^+: 147.00 ± 0.80 mmol/L
  PCT: 0.31 ± 0.10%
  PDWc: 33.08 ± 3.40%
  PHOS: 8.13 ± 1.00 mg/dL
  PLT: 448.50 ± 193.10 10^9/l
  RBC: 9.44 ± 1.00 10^12/l
  RDWc: 17.40 ± 0.40%
  TBIL: 0.43 ± 0.00 mg/dL
  TP: 5.08 ± 0.20 g/dL
  WBC: 6.72 ± 2.00 10^9/l
[2]
  phosphorylated ERK (T202/Y204): dramatically decrease phosphorylated ERK
[3]
  tumor volume versus vehicle control: statistically significant reduction in tumor volume; also recorded: mitigates the growth of SW480 cells
Capan-1 cells
  IC50: 1300 nM
